Source: ChEMBL document CHEMBL1139046, “3,4-Dihydro-2H-benzoxazinones as dual-acting 5-HT1A receptor antagonists and serotonin reuptake inhibitors” (Bioorg Med Chem Lett, 2007)

Experiments:
[1] = target: T1, 5-hydroxytryptamine receptor 1A (Homo sapiens, UniProt P08908); assay: Displacement of [3H]WAY-100635 from human cloned 5HT1A receptor expressed in CHO cells; type: cell-based
T1 sequence (P08908 whole entry): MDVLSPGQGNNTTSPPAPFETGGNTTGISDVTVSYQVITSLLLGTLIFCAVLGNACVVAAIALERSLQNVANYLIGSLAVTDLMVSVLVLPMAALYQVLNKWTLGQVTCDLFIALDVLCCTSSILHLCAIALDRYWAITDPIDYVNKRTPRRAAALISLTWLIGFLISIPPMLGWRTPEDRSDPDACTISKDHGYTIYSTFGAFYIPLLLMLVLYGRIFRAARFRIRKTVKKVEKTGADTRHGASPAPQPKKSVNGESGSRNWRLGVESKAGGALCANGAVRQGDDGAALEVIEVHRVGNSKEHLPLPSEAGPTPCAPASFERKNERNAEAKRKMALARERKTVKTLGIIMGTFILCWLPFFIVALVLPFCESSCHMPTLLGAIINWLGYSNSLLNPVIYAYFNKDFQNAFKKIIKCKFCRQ

[2] = target: 5-hydroxytryptamine receptor 1B (Homo sapiens, UniProt P28222); assay: Displacement of [3H]5-HT from human cloned 5HT1B receptor expressed in CHO cells; type: cell-based
Sequence of 5-hydroxytryptamine receptor 1B (P28222 whole entry): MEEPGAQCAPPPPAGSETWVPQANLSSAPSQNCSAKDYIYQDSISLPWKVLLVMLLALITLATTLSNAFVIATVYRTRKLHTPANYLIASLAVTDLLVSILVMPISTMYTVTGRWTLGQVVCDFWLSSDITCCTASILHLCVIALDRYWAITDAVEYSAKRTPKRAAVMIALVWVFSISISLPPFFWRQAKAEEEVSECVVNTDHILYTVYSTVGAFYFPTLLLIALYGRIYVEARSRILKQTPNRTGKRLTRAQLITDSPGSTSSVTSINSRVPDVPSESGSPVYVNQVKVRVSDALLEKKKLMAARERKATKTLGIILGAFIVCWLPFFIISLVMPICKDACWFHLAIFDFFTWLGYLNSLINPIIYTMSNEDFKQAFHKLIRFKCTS

[3] = target: 5-hydroxytryptamine receptor 1D (Homo sapiens, UniProt P28221); assay: Displacement of [3H]5-HT from human cloned 5HT1D receptor expressed in CHO cells; type: cell-based
Sequence of 5-hydroxytryptamine receptor 1D (P28221 whole entry): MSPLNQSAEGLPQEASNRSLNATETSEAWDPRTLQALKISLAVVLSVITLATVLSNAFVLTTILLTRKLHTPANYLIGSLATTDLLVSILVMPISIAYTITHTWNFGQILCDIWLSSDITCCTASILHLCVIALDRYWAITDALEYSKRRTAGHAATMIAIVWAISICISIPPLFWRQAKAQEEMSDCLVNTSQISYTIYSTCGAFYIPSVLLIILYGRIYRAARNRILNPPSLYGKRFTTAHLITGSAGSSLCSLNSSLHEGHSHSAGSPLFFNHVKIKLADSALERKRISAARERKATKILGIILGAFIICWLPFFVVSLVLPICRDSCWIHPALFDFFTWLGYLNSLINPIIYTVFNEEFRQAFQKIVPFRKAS

[4] = target: Sodium-dependent serotonin transporter (Rattus norvegicus, UniProt P31652); assay: Inhibition of [3H]5-HT uptake at SERT in rat cortical synaptosomes; type: subcellular, Brain
Sequence of Sodium-dependent serotonin transporter (P31652 whole entry): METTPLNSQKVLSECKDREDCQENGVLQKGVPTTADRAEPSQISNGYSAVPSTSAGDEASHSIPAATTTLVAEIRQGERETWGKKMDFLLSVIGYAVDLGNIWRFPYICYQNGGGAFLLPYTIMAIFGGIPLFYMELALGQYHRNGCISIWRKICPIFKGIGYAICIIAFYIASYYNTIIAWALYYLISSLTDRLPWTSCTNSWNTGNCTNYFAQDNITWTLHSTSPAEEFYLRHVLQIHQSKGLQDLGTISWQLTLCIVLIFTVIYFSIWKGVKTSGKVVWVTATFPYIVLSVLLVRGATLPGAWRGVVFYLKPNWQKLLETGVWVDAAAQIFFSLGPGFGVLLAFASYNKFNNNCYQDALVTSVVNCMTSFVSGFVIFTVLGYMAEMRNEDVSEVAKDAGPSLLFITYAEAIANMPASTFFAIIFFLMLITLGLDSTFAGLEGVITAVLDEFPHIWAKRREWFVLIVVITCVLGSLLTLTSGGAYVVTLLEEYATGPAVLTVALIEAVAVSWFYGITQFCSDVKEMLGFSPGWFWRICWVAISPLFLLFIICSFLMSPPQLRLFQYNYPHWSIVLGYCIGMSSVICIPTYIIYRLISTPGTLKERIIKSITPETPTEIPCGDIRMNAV

[5] = Blood clearance in rat at 3 mg/kg, po; type: ADME, organism-based; parameters: dose 3 mg/kg, route oral; settings: whole blood
[6] = Oral bioavailability in rat at 3 mg/kg, po; type: ADME, organism-based; settings: in vivo
[7] = Ratio of drug level in brain to blood in rat
[8] = target: 5-hydroxytryptamine receptor 2A (Homo sapiens, UniProt P28223); assay: Displacement of [3H]ketanserin from human cloned 5HT2A receptor expressed in HEK293 cells; type: cell-based
Sequence of 5-hydroxytryptamine receptor 2A (P28223 whole entry): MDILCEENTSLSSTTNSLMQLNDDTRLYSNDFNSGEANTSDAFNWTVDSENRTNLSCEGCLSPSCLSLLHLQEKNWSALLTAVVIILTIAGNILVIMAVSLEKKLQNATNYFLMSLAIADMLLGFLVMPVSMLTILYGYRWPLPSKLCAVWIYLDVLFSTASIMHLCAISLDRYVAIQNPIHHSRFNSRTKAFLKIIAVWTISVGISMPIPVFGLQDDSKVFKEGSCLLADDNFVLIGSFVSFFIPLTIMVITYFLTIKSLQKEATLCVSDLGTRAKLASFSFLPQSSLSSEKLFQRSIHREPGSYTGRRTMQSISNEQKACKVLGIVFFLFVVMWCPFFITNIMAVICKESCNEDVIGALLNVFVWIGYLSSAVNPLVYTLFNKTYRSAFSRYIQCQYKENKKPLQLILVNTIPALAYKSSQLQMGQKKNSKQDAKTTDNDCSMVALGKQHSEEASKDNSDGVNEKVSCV

[9] = target: 5-hydroxytryptamine receptor 2B (Homo sapiens, UniProt P41595); assay: Displacement of [3H]5-HT from human cloned 5HT2B receptor expressed in HEK293 cells; type: cell-based
Sequence of 5-hydroxytryptamine receptor 2B (P41595 whole entry): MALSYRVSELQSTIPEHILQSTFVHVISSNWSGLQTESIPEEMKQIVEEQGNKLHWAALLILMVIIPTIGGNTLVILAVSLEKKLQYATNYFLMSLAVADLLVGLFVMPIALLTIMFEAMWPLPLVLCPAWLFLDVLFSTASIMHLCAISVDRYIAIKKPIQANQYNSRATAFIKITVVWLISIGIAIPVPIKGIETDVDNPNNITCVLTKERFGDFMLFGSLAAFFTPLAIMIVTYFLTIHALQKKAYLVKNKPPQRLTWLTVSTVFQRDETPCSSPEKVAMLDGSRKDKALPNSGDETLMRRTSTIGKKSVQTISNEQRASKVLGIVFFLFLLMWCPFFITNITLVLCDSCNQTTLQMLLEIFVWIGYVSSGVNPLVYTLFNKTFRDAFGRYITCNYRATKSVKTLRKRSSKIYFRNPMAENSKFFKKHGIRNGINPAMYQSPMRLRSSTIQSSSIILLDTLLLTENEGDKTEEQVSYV

[10] = target: T2, 5-hydroxytryptamine receptor 2C (Homo sapiens, UniProt P28335); assay: Displacement of [3H]mesulergine from human cloned 5HT2C receptor expressed in HEK293 cells; type: cell-based
T2 sequence (P28335 whole entry): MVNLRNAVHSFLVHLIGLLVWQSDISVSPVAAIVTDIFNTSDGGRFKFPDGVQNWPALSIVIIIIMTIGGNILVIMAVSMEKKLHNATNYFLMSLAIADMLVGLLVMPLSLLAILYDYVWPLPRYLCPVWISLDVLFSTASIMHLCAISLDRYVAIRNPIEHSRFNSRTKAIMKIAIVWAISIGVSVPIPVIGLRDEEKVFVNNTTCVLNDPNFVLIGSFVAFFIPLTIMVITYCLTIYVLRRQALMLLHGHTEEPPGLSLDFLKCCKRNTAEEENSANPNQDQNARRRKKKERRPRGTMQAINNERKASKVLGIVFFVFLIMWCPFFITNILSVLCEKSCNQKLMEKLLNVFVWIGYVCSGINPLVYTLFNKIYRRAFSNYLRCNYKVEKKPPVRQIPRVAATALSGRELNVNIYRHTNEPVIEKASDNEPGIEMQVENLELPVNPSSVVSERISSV

[11] = target: 5-hydroxytryptamine receptor 6 (Homo sapiens, UniProt P50406); assay: Displacement of [3H]LSD from human cloned 5HT6 receptor expressed in HeLa cells; type: cell-based
Sequence of 5-hydroxytryptamine receptor 6 (P50406 whole entry): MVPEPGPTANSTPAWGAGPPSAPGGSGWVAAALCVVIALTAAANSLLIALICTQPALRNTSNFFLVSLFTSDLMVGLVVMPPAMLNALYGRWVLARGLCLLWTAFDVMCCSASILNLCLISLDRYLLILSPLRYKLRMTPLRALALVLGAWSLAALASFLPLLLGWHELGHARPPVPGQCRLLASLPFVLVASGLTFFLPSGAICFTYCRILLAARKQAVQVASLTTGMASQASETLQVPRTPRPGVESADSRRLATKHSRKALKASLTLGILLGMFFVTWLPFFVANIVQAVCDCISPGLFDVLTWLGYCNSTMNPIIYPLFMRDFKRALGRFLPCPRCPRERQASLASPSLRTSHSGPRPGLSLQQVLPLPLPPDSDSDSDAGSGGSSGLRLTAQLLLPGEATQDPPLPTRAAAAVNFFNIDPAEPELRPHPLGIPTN

[12] = target: 5-hydroxytryptamine receptor 7 (Homo sapiens, UniProt P34969); assay: Displacement of [3H]5CT from human cloned 5HT7a receptor expressed in HEK293 cells; type: cell-based
Sequence of 5-hydroxytryptamine receptor 7 (P34969 whole entry): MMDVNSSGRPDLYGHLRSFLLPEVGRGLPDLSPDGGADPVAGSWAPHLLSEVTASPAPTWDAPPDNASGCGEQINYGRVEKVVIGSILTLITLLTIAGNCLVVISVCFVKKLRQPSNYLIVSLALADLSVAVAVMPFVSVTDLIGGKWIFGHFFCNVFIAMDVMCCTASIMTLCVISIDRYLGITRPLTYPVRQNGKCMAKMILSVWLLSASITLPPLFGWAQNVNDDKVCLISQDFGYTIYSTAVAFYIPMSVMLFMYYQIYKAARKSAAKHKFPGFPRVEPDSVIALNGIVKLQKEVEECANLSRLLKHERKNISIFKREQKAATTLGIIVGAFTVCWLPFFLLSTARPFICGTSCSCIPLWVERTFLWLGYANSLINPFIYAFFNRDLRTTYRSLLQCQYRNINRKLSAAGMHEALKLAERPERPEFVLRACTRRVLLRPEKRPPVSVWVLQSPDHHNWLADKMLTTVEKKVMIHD

D(2) dopamine receptor = D(2) dopamine receptor (Homo sapiens, UniProt P14416); assay: Displacement of [125I]iodosulpiride from human cloned D2 receptor expressed in CHO cells; type: cell-based
Sequence of D(2) dopamine receptor (P14416 whole entry): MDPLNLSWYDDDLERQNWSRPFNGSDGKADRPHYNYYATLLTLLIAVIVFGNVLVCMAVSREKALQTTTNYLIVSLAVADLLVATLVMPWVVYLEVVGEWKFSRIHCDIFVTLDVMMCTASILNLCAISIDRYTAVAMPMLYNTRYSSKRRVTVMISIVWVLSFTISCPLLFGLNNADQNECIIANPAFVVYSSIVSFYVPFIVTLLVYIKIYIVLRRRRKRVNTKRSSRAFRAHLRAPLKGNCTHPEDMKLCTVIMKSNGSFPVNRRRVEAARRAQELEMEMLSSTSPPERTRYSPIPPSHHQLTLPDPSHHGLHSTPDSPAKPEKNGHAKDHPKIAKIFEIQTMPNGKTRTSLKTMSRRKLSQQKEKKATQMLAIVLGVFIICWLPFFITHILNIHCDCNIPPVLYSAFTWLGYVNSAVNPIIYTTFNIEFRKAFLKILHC

D(3) dopamine receptor = D(3) dopamine receptor (Homo sapiens, UniProt P35462); assay: Displacement of [125I]iodosulpiride from human cloned D3 receptor expressed in CHO cells; type: cell-based
Sequence of D(3) dopamine receptor (P35462 whole entry): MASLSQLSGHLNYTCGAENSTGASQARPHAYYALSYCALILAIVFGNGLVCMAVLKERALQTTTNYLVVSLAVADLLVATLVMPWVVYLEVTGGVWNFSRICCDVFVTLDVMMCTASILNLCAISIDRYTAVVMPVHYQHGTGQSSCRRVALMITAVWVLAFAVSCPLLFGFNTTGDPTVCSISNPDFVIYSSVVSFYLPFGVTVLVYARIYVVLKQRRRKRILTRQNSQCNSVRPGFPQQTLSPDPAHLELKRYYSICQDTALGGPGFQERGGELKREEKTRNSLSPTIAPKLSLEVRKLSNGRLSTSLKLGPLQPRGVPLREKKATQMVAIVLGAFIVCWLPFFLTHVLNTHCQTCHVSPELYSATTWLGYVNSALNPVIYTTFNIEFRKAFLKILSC

[13] = target: Alpha-1B adrenergic receptor (Homo sapiens) (UniProt P35368); assay: Binding affinity at adrenergic alpha 1b receptor
Sequence of Alpha-1B adrenergic receptor (Homo sapiens) (P35368 whole entry, looked up): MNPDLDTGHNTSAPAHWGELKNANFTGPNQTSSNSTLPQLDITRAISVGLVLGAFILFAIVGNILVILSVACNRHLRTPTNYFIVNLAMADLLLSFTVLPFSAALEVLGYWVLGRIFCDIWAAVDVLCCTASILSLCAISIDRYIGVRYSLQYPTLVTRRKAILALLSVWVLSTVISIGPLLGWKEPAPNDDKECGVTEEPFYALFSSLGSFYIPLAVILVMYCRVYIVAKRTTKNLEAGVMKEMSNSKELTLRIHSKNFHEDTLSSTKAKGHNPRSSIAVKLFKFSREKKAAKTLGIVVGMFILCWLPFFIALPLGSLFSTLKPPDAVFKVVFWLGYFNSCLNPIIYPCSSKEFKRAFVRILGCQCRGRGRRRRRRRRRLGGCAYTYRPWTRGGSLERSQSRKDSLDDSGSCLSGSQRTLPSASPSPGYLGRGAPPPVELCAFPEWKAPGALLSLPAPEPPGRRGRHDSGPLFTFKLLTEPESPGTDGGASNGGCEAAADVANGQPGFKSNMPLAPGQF

Row | Ki [1] | Ki [2] | Ki [3] | Ki [4] | CL/F [5] | bioavailability [6] | Kp [7] | Ki [8] | Ki [9] | Ki [10] | Ki [11] | Ki [12] | Ki (D(2) dopamine receptor) | Ki (D(3) dopamine receptor) | Log Ki [13] | Ki [13] | Compound
1 | 3.98 nM | 316 nM | 79.4 nM | 63.1 nM | 25 mL/min/kg | 88% | 0.4 | > 10000 nM | > 7.94 µM | > 10000 nM | > 6.31 µM | 79.4 nM | > 10000 nM | 3980 nM | > -6 |  | Cc1ccc2c(OCCN3CCC(Cc4cc(F)c5c(c4)NC(=O)CO5)CC3)cc(F)cc2n1
2 | 20 nM | 1000 nM | 251 nM | 100 nM |  |  |  |  |  |  |  |  |  |  |  |  | Cc1ccc2c(OCCN3CCC(Cc4ccc5c(c4)NC(=O)CO5)CC3)cc(C#N)cc2n1
3 | 50.1 nM | 31.6 nM | 2.51 nM | 10 nM |  |  |  |  |  |  |  |  |  |  |  |  | Cc1ccc2c(OCCN3CCC(Cc4ccc5c(c4)NC(=O)CO5)CC3)c(F)ccc2n1
4 | 5.01 nM | 0.794 nM | 0.398 nM | 6.31 nM | 22 mL/min/kg |  |  |  |  |  |  |  |  |  |  |  | Cc1ccc2c(OCCN3CCC(Cc4cc(F)c5c(c4)NC(=O)CO5)CC3)cccc2n1

Further lines, the compound ahead of its results:

Row | Compound | Ki [1] | Ki [2] | Ki [3] | Ki [4] | CL/F [5] | bioavailability [6] | Kp [7] | Ki [8] | Ki [9] | Ki [10] | Ki [11] | Ki [12] | Ki (D(2) dopamine receptor) | Ki (D(3) dopamine receptor) | Log Ki [13] | Ki [13]
5 | Cc1ccc2c(OCCN3CCC(Cc4ccc5c(c4)NC(=O)CO5)CC3)cc(Cl)cc2n1 | 1.58 nM | 1260 nM | 794 nM | 10 nM | 25 mL/min/kg | 56% | 0.2 |  |  |  |  |  |  |  |  | 
6 | Cc1ccc2c(OCCN3CCC(Cc4ccc5c(c4)NC(=O)CO5)CC3)ccc(F)c2n1 | 20 nM | 794 nM | 79.4 nM | 7.94 nM |  |  |  |  |  |  |  |  |  |  |  | 
7 | Cc1ccc2c(OCCN3CCC(Cc4ccc5c(c4F)NC(=O)CO5)CC3)cccc2n1 | 2.51 nM | 2.51 nM | 0.794 nM | 15.8 nM | 41 mL/min/kg |  | 4 |  |  |  |  |  |  |  |  | 
8 | Cc1ccc2c(OCCN3CCC(Cc4ccc5c(c4F)NC(=O)CO5)CC3)cc(F)cc2n1 | 1.58 nM | 398 nM | 100 nM | 25.1 nM | 27 mL/min/kg | 39% | 6.4 | 2000 nM |  | 2510 nM | > 10 µM | 126 nM | 1260 nM | 794 nM |  | 1260 nM
